Drawing on a melting point compilation (Tetko et al.; mined from patent text by program, amines drawn as free bases though some values may be those of a salt), this text covers melting point for 62 compounds.

SMILES strings stand for the structures.

As a reminder, the melting point is the temperature of the solid-liquid transition. `NC(=O)CNC(=O)c1cccc(-c2cccc3sc(Cc4cccc(C(F)(F)F)c4)nc23)c1` came in with a melting point of 130 to 131 °C.
With `CCCCN(CCCC)C(=O)NCCc1ccc(-c2csc(N)n2)cc1`, the melting point is 42 to 43 °C.
The compound `CCC(CC)Oc1nc(C)nc(Nc2c(C)cc(C)cc2C)c1CO` registered a melting point of 121 to 123 °C.
Consider `CNC(=O)c1cc(F)ccc1CNC(=O)c1nc2n(c(=O)c1OCc1ccccc1)CCOC2`, for which the melting point lay within 189 to 190 °C.
In the case of `O=C1NC(O)C2=C1c1ccc(Cl)cc1C(c1ccccc1Cl)=NC2` (configuration not stated) it was 221 to 222 °C.
Take `CC1(C)CC(=O)c2c(C(=O)O)c[nH]c2C1`: the melting point is 231 to 232 °C.
Then `Cc1ccc(C)c(-c2cn(C)cc(-c3cccc(C(F)(F)F)c3)c2=O)c1`, with 165 to 167 °C.
Consider `O=C(O)c1cc(CO)nn1-c1ncccc1Cl`, for which the melting point was in the range of 178 to 180 °C.
In turn, `CSc1[nH]c(-c2ccccc2C)cc1C#N` showed a melting point of 148 to 149 °C.
Then `O=C(Nc1cnc2scnc2c1)c1cc2cc(F)ccc2n1Cc1cccc(F)c1`, with 250 to 251 °C; and `CC(C)C[C@H](NC(=O)[C@H](Cc1ccccc1)NC(=O)OCc1ccccc1)C(=O)N[C@@H](C(C)C)[C@@H](O)c1c(-c2ccccc2)c1=O`, with 128 to 130 °C.
In the case of `COc1ccc(C(C)(C)O)cc1CN[C@H]1CN2CC[C@H]1[C@H](C(=O)O)[C@@H]2C(c1ccccc1)c1ccccc1` it was 150 to 153 °C; in that of `O=c1ccc(O)nn1-c1ccc(OC(F)(F)F)cc1`, 243 °C; in that of `Fc1ccc(-c2nc3ccc(N4CCC5(CCCNC5)CC4)nn3c2-c2ccnc3[nH]ccc23)cc1`, 279 to 280 °C.
In turn, `CC(C)(C)OC(=O)C1CSC(c2cccc(F)c2F)N1` (mixture of isomers) displayed a melting point of 120 °C.
`CO[C@@H]([C@H](OC)[C@H](O)COS(C)(=O)=O)[C@H](O)COS(C)(=O)=O` gave a melting point of 112 to 114 °C.
In turn, `CCCCCCCCCCCCCCCCCCN(CCCCCCCCCCCCCCCCCC)CCCN(CC(=O)OC)CC(=O)OC` yielded a melting point of 75 to 77 °C.
`CS(=O)(=O)c1ccc(-c2cnn(CC(F)(F)F)c(=O)c2Nc2cccc(F)c2)cc1` had a melting point of 156 to 158 °C.
`CCOc1ccccc1NC(N)=S` gave a melting point of 174 °C.
Turning to `CN1CCN(c2cccc(CS(=O)(=O)c3ccccc3)c2[N+](=O)[O-])CC1`, the melting point was in the range of 180 to 182 °C.
For `COc1ccc(C2=NN(CC=Cc3ccccc3)C(=O)C3CCCCC23)cc1OC` (configuration not stated), the melting point is 76 to 79 °C.
In the case of `Cc1ccccc1NC1(C#N)CCN(C(=O)c2cc(C(F)(F)F)cc(C(F)(F)F)c2)CC1` it was 141 to 142 °C.
Compound `Cc1cc(N2N=CCNC2=O)cc(Cl)c1C(C#N)c1cnc(Cl)s1` (configuration not stated) displayed a melting point of 238 to 239 °C.
Then `CCOC(=O)c1cnc(O)c2c(C)n[nH]c12`, with 310 °C; and `CC(=NN)c1ccc2c(c1)C(C(Cl)(Cl)Cl)OC(C(Cl)(Cl)Cl)O2` (configuration not stated), with 159 °C.
`Nc1ncnc2c1ncn2OC[C@@H](CO)OCP(=O)(O)O` gave a melting point of 200 to 205 °C.
Turning to `C=CCn1nc(-c2ccc(O)cc2O)c2cccc(C(F)(F)F)c21`, the melting point was 114 to 115 °C.
Take `CCCCC(CC)COC(=O)c1cc(OC)c(O)c(OC)c1` (configuration not stated): the melting point lay in the range of 35 to 36 °C.
Then `O=C(NCC12CC3CC(CC(C3)C1)C2)c1c(Cl)ccc2nc(N3CCC(n4cn[nH]c4=O)CC3)ccc12`, with 294 to 295 °C; and `N#Cc1c(-c2ccccc2)cc(Cl)nc1Cl`, with 167 to 169 °C.
Compound `NS(=O)(=O)c1ccc(-c2cn(-c3nc(-c4ccc(Cl)cc4)cc(C(F)(F)F)n3)cn2)cc1` had a melting point of 324 °C.
Turning to `CCOP(=O)(Cc1ccc(NC(=O)/C=C/c2cn(Cc3ccccc3)nc2-c2ccc(F)cc2)cc1)OCC`, the melting point was 199 to 200 °C.
As to `COc1cc(NC(C)=O)cc(C(F)(F)F)c1`, the melting point fell in the range of 123 to 124 °C.
The compound `OC1CCCCC1Oc1ccc(Oc2ccccc2)cc1` (configuration not stated) showed a melting point of 103 to 105 °C.
For the compound `C(=Cc1ccc2cc(C=Cc3ccccc3)ccc2c1)c1ccccc1`, the melting point came out at 291 °C.
In the case of `COCCn1cc(C(=O)O)c2c(C(=O)N3CCOCC3)cccc21` it was 201 to 203 °C; in that of `O=c1nc(-c2cccc(C(F)(F)F)c2)sc2ccccc12`, 115 °C; in that of `CC(c1ccccc1)N1CC(C(C(N)=O)(c2ccccc2)c2ccccc2)C1` (configuration not stated), 153 to 154 °C.
Consider `Cc1nc(OC(F)F)c(C#N)c(N2CCc3ccccc3CC2)n1`, for which the melting point was determined as 143 °C.
`N=C(N)c1nc2c(s1)CCc1c-2sc2nc3ccccc3n12` showed a melting point above 300 °C.
In the case of `COC1(C[N+](=O)[O-])OC(=O)c2cc(C)c(C)cc21` (configuration not stated), the melting point lay within 147 to 150 °C.
With `CC(=NOCc1cc(C(F)(F)F)ccc1C(F)(F)F)c1cc(Cl)ccc1NS(=O)(=O)C(F)(F)F`, the melting point was 73 to 75 °C.
Compound `CCCCCCCNC(=O)Nc1ccccc1C(=O)NC1CCCNC1` (configuration not stated) gave a melting point of 165 °C.
As for `COC(=O)N=C(N)OC`, the melting point lay in the range of 36 to 39.5 °C.
In turn, `CCOC(=O)C1=C(C)NC(CCN(C)C)=C(C(=O)OCC)C1c1ccccc1/C=C/C(=O)OC(C)(C)C` (configuration not stated) returned a melting point of 150 to 151 °C.
`C#Cc1c(C(C)C)nc(-c2ccccc2)n1-c1ccc(F)cc1`: the melting point was in the range of 148 to 150 °C.
`c1ccc(Nc2nc(N3CCN(c4ccccc4)CC3)nc3c2SCC3)cc1` came in with a melting point of 174 to 175 °C.
For `O=C(O)c1cc(-n2c(-c3ccc(O)cc3)cc3c2CCCC3)ccc1O`, the melting point lay in the range of 214 to 217 °C.
Then `O=C1Nc2cc3c(cc2C12COc1cc4c(cc12)CCO4)OCCO3` (configuration not stated), with above 250 °C; and `CCc1c(NC(=O)c2ccc(Br)cc2)ccc2cc(CN3CCCC3)cnc12`, with 230 to 231 °C; and `CC(C)(C)c1ccc(S(=O)(=O)Nc2cc(OCCO)ncn2)cc1`, with 169 to 170 °C.
The compound `CCCNc1nc(OCC)nc2cscc12` returned a melting point of 140 to 142 °C.
With `O=C(O)CCC(NC(=O)c1cccc(-c2ccccc2OC2OC(CO)C(O)C(O)C2O)c1)C(=O)O` (configuration not stated), the melting point fell in the range of 109 to 112 °C.
In turn, `O=C1CC(c2ccc(OCc3ccccc3)cc2)=Nc2ccc(N3CCOCC3)cc21` registered a melting point of 320 to 323 °C.
In turn, `CC(=O)c1ccc(-c2nc(=O)c3ccccc3s2)nc1` showed a melting point of 276 to 277 °C.
`CC(C)=CCOc1ccc(C(=O)C=Cc2ccc(F)cc2)c(O)c1` yielded a melting point of 96 to 97 °C.
In turn, `CN(C)Cc1nc(-c2ncn3c2[C@@H]2CCN2C(=O)c2cc(F)ccc2-3)no1` gave a melting point of 150 to 155 °C.
Take `COc1cc(C(=O)c2ncc3ccc(N)cn23)ccc1[N+](=O)[O-]`: the melting point is 252 °C.
Compound `O=C(O)c1cc([N+](=O)[O-])c(-c2ccccc2)c([N+](=O)[O-])c1` had a melting point of 219 to 221 °C.
With `Cn1c(=O)[nH]c(=O)c2c1ncn2Cc1noc(C2CCCCC2)n1`, the melting point fell in the range of 245 to 248 °C.
In the case of `Cc1nn(-c2cncc(F)c2)cc1-c1cccc(C(F)(F)F)n1` it was 130 to 131 °C.
As to `Clc1nc2c(c(N3CCCC3)n1)SCCC2`, the melting point was 76 °C.
